Experimental data taken from US20250230155A1 (Vanderbilt University, priority 2021, published 2025).

Target: T1, human mAChR M4 (Homo sapiens, UniProt P08173)
T1 construct: expressed in transfected cells
T1 sequence (P08173 1-479): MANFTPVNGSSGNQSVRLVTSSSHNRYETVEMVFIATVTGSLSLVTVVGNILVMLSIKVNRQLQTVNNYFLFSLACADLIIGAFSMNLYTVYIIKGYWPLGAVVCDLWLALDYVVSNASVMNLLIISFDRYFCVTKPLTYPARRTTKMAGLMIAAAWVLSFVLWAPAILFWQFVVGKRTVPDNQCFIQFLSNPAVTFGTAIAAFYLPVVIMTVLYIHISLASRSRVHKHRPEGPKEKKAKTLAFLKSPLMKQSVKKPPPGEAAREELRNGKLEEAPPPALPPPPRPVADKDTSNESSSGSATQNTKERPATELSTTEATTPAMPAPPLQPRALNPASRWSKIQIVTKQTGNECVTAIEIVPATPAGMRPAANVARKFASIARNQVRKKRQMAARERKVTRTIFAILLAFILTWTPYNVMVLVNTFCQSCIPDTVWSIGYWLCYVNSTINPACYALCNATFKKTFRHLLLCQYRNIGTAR
Assay: mAChR M4 cell-based functional assay (calcium mobilization, CHO-K1 hM4-Gqi5 cells)
Details: for Emax at 30 µM: CHO-K1, % ACh maximum at 30 μM, human M4; for EC50: positive allosteric modulator activity, increase in the EC20 acetylcholine response, CHO-K1 hM4-Gqi5 cells, read-out: Human M4 EC50
Method in brief: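 CHO-K1 cells stably expressing human M4 with chimeric Gqi5, loaded with Fluo-4 AM; compounds given as 11-point 1:3 curves and calcium flux read on FDSS at 1 Hz. Acetylcholine EC20 added at 144 s, EC80 at 230 s; agonist, PAM (EC20 potentiation) and antagonist (EC80 inhibition) EC50/Emax from four-parameter fits.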

Row | Compound | Emax at 30 µM | EC50
1 | Cc1nc(C)c(C)c(N2CCc3ncc(-c4ccc(-n5ccnc5)nc4)cc3C2)n1 [compound 232, 3-(6-(1H-imidazol-1-yl)pyridin-3-yl)-6-(2,5,6-trimethylpyrimidin-4-yl)-5,6,7,8-tetrahydro-1,6-naphthyridine] | 61% | 263 nM
2 | CCCn1cc(-c2cnc3c(c2)CN(c2ncc(C#N)cc2C)CC3)cn1 [compound 108, 5-methyl-6-[3-(1-propylpyrazol-4-yl)-7,8-dihydro-5H-1,6-naphthyridin-6-yl]pyridine-3-carbonitrile] | 90% | 330 nM
3 | Cc1nc(Cl)c(C)c(N2Cc3cc([N+](=O)[O-])cnc3C(C)C2)n1 (centres unmarked) [compound 222, 6-(6-chloro-2,5-dimethylpyrimidin-4-yl)-8-methyl-3-nitro-5,6,7,8-tetrahydro-1,6-naphthyridine] | 91% | 333 nM
4 | Cc1cc(C#N)cnc1N1Cc2cc(C(F)(F)F)cnc2C(C)C1 (centres unmarked) [Example 347, 5-methyl-6-(8-methyl-3-(trifluoromethyl)-7,8-dihydro-1,6-naphthyridin-6(5H)-yl)nicotinonitrile] | 82% | 992 nM
5 | [2H]C([2H])([2H])c1cnc2c(c1)CN(c1nnc(C(=O)N3CC(F)(F)C3)cc1C)CC2 [Example 576, (3,3-difluoroazetidin-1-yl)(5-methyl-6-(3-(methyl-d3)-7,8-dihydro-1,6-naphthyridin-6(5H)-yl)pyridazin-3-yl)methanone] | 71% | 41 nM
6 | Cc1cc(C#N)cnc1N1CCc2ncc(Oc3cc(F)ccc3F)cc2C1 [Example 351, 6-(3-(2,5-difluorophenoxy)-7,8-dihydro-1,6-naphthyridin-6(5H)-yl)-5-methylnicotinonitrile] | 88% | 160 nM
7 | Cc1cc(C(=O)N2CC(C(F)F)C2)nnc1N1CCc2ncc(C(F)(F)F)cc2C1 [Example 522, (3-(difluoromethyl)azetidin-1-yl)(5-methyl-6-(3-(trifluoromethyl)-7,8-dihydro-1,6-naphthyridin-6(5H)-yl)pyridazin-3-yl)methanone] | 109% | 168 nM
8 | Cc1cc(C#N)nnc1N1CCc2ncc(Oc3ccccc3F)cc2C1 [Example 396, 6-(3-(2-fluorophenoxy)-7,8-dihydro-1,6-naphthyridin-6(5H)-yl)-5-methylpyridazine-3-carbonitrile] | 87% | 65 nM
9 | Cc1cc(C#N)nnc1N1CCc2ncc(N3CCOC(C)(C)C3)cc2C1 [Example 398, 6-(3-(2,2-dimethylmorpholino)-7,8-dihydro-1,6-naphthyridin-6(5H)-yl)-5-methylpyridazine-3-carbonitrile] | 74% | 102 nM
10 | COCc1nc(Cl)c(C)c(N2CCc3ncc(C(F)(F)F)cc3C2)n1 [compound 214, 6-(6-chloro-2-(methoxymethyl)-5-methylpyrimidin-4-yl)-3-(trifluoromethyl)-5,6,7,8-tetrahydro-1,6-naphthyridine] | 103% | 709 nM
11 | Cc1cc(C(=O)NCc2ccc3c(c2)n(C)c(=O)n3C)cnc1N1CCc2ncccc2C1 [compound 158, 6-(7,8-dihydro-5H-1,6-naphthyridin-6-yl)-N-[(1,3-dimethyl-2-oxo-benzimidazol-5-yl)methyl]-5-methyl-pyridine-3-carboxamide] | 68% | 3640 nM
12 | Cc1c(C#N)nnc(N2Cc3cc(C(F)(F)F)cnc3CC2C)c1C (centres unmarked) [Example 367, 4,5-dimethyl-6-(7-methyl-3-(trifluoromethyl)-7,8-dihydro-1,6-naphthyridin-6(5H)-yl)pyridazine-3-carbonitrile] | 89% | 209 nM
13 | Cc1cc(C(=O)NCc2ccc(-n3ccnc3)nc2)cnc1N1CCc2ncc(-c3cn(C)nc3C)cc2C1 [Example 478, N-((6-(1H-imidazol-1-yl)pyridin-3-yl)methyl)-6-(3-(1,3-dimethyl-1H-pyrazol-4-yl)-7,8-dihydro-1,6-naphthyridin-6(5/)-yl)-5-methylnicotinamide] | 50% | 379 nM
14 | Cc1cc(F)ncc1-c1cnc2c(c1)CN(c1nccc(C#N)c1C)CC2 [Example 437, 2-(3-(6-fluoro-4-methylpyridin-3-yl)-7,8-dihydro-1,6-naphthyridin-6(5H)-yl)-3-methylisonicotinonitrile] | 47% | 692 nM
15 | Cc1cc(C(=O)NCc2ccncc2)cnc1N1CCc2ncc(C(F)(F)F)cc2C1 [Example 444, 5-methyl-N-(pyridin-4-ylmethyl)-6-(3-(trifluoromethyl)-7,8-dihydro-1,6-naphthyridin-6(5H)-yl)nicotinamide] | 100% | 196 nM
16 | Cc1cc(Nc2cnc3c(c2)CN(c2ncc(C#N)cc2C)CC3)n(C(C)C)n1 [Example 316, 6-(3-((1-isopropyl-3-methyl-1H-pyrazol-5-yl)amino)-7,8-dihydro-1,6-naphthyridin-6(5H)-yl)-5-methylnicotinonitrile] | 57% | 689 nM
17 | Cc1cc(C(=O)NCc2ccc3c(c2)CCS3(=O)=O)cnc1N1CCc2ncccc2C1 [compound 164, 6-(7,8-dihydro-5H-1,6-naphthyridin-6-yl)-N-[(1,1-dioxo-2,3-dihydrobenzothiophen-5-yl)methyl]-5-methyl-pyridine-3-carboxamide] | 54% | ≥ 10000 nM
18 | Cc1cc(C(=O)NCc2cncs2)nnc1N1CCc2ncc(C(F)(F)F)cc2C1 [Example 492, 5-methyl-N-(thiazol-5-ylmethyl)-6-(3-(trifluoromethyl)-7,8-dihydro-1,6-naphthyridin-6(5H)-yl)pyridazine-3-carboxamide] | 110% | 17 nM
19 | CNC(=O)c1ccc(CNC(=O)c2cnc(N3CCc4ncccc4C3)c(C)c2)cc1 [compound 149, 6-(7,8-dihydro-5H-1,6-naphthyridin-6-yl)-5-methyl-N-[[4-(methylcarbamoyl)phenyl]methyl] pyridine-3-carboxamide] | 56% | ≥ 10000 nM
20 | Cc1c(C#N)nnc(N2CCc3ncc(Oc4ccc(F)cc4F)cc3C2)c1C [Example 354, 6-(3-(2,4-difluorophenoxy)-7,8-dihydro-1,6-naphthyridin-6(5H)-yl)-4,5-dimethylpyridazine-3-carbonitrile] | 64% | 271 nM
21 | Cc1cc(C(=O)NC2(c3cccnc3)CC2)nnc1N1CCc2ncc(CC(F)(F)F)cc2C1 [Example 585, 5-methyl-N-(1-(pyridin-3-yl)cyclopropyl)-6-(3-(2,2,2-trifluoroethyl)-7,8-dihydro-1,6-naphthyridin-6(5H)-yl)pyridazine-3-carboxamide] | 96% | 482 nM
22 | COC1(C)CN(C(=O)c2cc(C)c(N3CCc4ncc(N5CCCn6nccc65)cc4C3)nn2)C1 [Example 552, (6-(3-(6,7-dihydropyrazolo[1,5-a]pyrimidin-4(5H)-yl)-7,8-dihydro-1,6-naphthyridin-6(5H)-yl)-5-methylpyridazin-3-yl)(3-methoxy-3-methylazetidin-1-yl)methanone] | 76% | 22 nM
23 | Cc1cc(C#N)nnc1N1CCc2ncc(C(F)(F)F)cc2C1 [Example 304, 5-methyl-6-(3-(trifluoromethyl)-7,8-dihydro-1,6-naphthyridin-6(5H)-yl)pyridazine-3-carbonitrile] | 93% | 676 nM
24 | Cc1cc(C#N)cnc1N1CCc2ncc(Nc3cc(F)cc(F)c3F)cc2C1 [compound 116, 5-methyl-6-[3-(2,3,5-trifluoroanilino)-7,8-dihydro-5H-1,6-naphthyridin-6-yl]pyridine-3-carbonitrile] | 95% | 336 nM
25 | Cc1cc(C(=O)N2CCCC2(C)C)nnc1N1CCc2ncc(N3CCCn4nccc43)cc2C1 [Example 529, (6-(3-(6,7-dihydropyrazolo[1,5-a]pyrimidin-4(5H)-yl)-7,8-dihydro-1,6-naphthyridin-6(5/I)-yl)-5-methylpyridazin-3-yl)(2,2-dimethylpyrrolidin-1-yl)methanone] | 68% | 570 nM
26 | Clc1nc2c(c(N3CCc4ncc(-c5cnn(C6CC6)c5)cc4C3)n1)COC2 [compound 286, 2-chloro-4-(3-(1-cyclopropyl-1H-pyrazol-4-yl)-7,8-dihydro-1,6-naphthyridin-6(5H)-yl)-5,7-dihydrofuro[3,4-d]pyrimidine] | 33% | 504 nM
27 | Cc1cc(C(=O)NCc2nccs2)cnc1N1CCc2ncc(-c3cn(C)nc3C)cc2C1 [compound 170, 6-[3-(1,3-dimethylpyrazol-4-yl)-7,8-dihydro-5H-1,6-naphthyridin-6-yl]-5-methyl-N-(thiazol-2-ylmethyl)pyridine-3-carboxamide] | 103% | 110 nM
28 | O=C(NCc1ccncc1)c1ccc(N2CCc3ncc(C(F)(F)F)cc3C2)nn1 [Example 511, N-(pyridin-4-ylmethyl)-6-(3-(trifluoromethyl)-7,8-dihydro-1,6-naphthyridin-6(5H)-yl)pyridazine-3-carboxamide] | 75% | 3160 nM
